From the NIST ThermoML archive (doi:10.1016/j.jct.2007.11.009)
± gives the expanded uncertainty stated by the source.

Test: refractive index (Na D-line) (dimensionless)
Settings: 298.15 K; 101.33 kPa; Liquid; Standard Abbe refractometry

Row | refractive index | SMILES
1 | 1.4979 ± 0.0007 | c1ccccc1 [benzene]
2 | 1.395 ± 0.0007 | CCCCCCCC [octane]
